Laboratory results reported in paper PMC4859512, “Polyamino-Isoprenic Derivatives Block Intrinsic Resistance of P. aeruginosa to Doxycycline and Chloramphenicol In Vitro” (PLoS ONE, 2016).
Like-named read-outs stand apart in the source and are kept apart here.

Experiments:
[1] = tested on: P. aeruginosa PA0-7H (Mex EF overproducer); experiment: Antibiotic susceptibility testing (broth micro-dilution MIC), strain PA0-7H; assay type: cell-based, Pseudomonas aeruginosa; details: Pseudomonas aeruginosa
Experimental: (§1) Experiments were performed on the BAC-SCREEN platform of the UMR-MD1, with a Freedom EVO 150 liquid handling system (Tecan, Lyon, France).
(§2) We concluded that compound 3 was the best compound and suitable for a more detailed study. The same experiment was performed using chloramphenicol (4 mg/L) in combination with 3 (10 μM final concentration). Amongst the 20 clinical isolates, the growth of 15 (75%) was impaired, while 5 (25%) were resistant (data not shown). These experiments were performed to study the effect of our compounds on the natural resistance of P. aeruginosa. In addition, we were wondering if compound 3 could also increase susceptibility to other antibiotic families including ß-Lactams, fluoroquinolones and aminoglycosides, that are representative of the main classes of anti-pseudomonal agents. Experiments were performed with the ß-lactams ceftazidime and ticarcillin and ciprofloxacin and amikacin. […] . […] To better characterize compound 3, we first searched for the minimum concentration of compound that allowed killing of bacteria by doxycycline, and PAßN was used as the reference molecule.

[2] = tested on: P. aeruginosa CMZ091 (Mex XY overproducer); experiment: Antibiotic susceptibility testing (broth micro-dilution MIC), strain CMZ091; assay type: cell-based, Pseudomonas aeruginosa; details: Pseudomonas aeruginosa
Experimental: as §1, §2

[3] = tested on: P. aeruginosa PT629 (Mex AB overproducer); experiment: Antibiotic susceptibility testing (broth micro-dilution MIC), strain PT629; assay type: cell-based, Pseudomonas aeruginosa; details: Pseudomonas aeruginosa
Experimental: as §1, §2

P. aeruginosa PA01 (wt) = experiment: Antibiotic susceptibility testing (broth micro-dilution MIC), strain PA01; assay type: cell-based, Pseudomonas aeruginosa; details: for MIC: Pseudomonas aeruginosa
Experimental: as §1
(§3) The same experiment was performed using chloramphenicol (4 mg/L) in combination with 3 (10 μM final concentration). […] These experiments were performed to study the effect of our compounds on the natural resistance of P. aeruginosa. […] Experiments were performed with the ß-lactams ceftazidime and ticarcillin and ciprofloxacin and amikacin.

[4] = tested on: P. aeruginosa PA01 ERY^R (Mex CD overproducer); experiment: microbe, parasite or virus in culture; assay type: cell-based, Pseudomonas aeruginosa; details: Pseudomonas aeruginosa
Experimental: as §1, §3

[5] = tested on: clinical isolates of P. aeruginosa; experiment: Doxycycline MIC of the clinical isolates (S1 Table); assay type: cell-based; details: Pseudomonas aeruginosa
Experimental: The P. aeruginosa strains used in this study are described in Table 1. In addition, a series of 20 clinical isolates of P. aeruginosa obtained from the Hôpital d’Instruction des Armées Laveran, HIA-Laveran (Marseille, France) were also used in this study (S1 Table). Strains were stored at -80°C in 15% (v/v) glycerol for cryo-protection. Bacteria were routinely maintained on Mueller-Hinton (MH) agar plates and grown in cation-adjusted MH broth (MHBII) at 37°C.
as §1
Isolates Sampling location Sampling date Patient age Doxycycline MIC Main antibiotic resistance
AMK, LVX, OFX, TET, MIN, TGC, CHL, NET, CAR
PA2013-LAV17 Redon drain 15/12/2012 81 32 PIP, PIP/TZP, AZT, CAZ, TIC, TCC, FEP, FOS, TET,
TIC : ticarcillin, TCC : ticarcillin/clavulanic acid, FOS : fosfomycin, TET : tetracycline, MIN, minocycline, TCG, tigecycline, CAR : carbenicillin, PIP :
piperacillin, PIP/TZP : piperacillin/tazobactam, GEN : gentamycin, CAZ : ceftazidime, FEP : cefepime, TOB : tobramycin, IPM : imipenem, CIP :
ciprofloxacin, AMK : amikacin, LVX : levofloxacin, OFX : ofloxacin, NET : netilmicin, STR, streptomycin, MEM : meropenem.

P. aeruginosa PA01 = experiment: Checkerboard assay with doxycycline; assay type: cell-based, Pseudomonas aeruginosa; details: Pseudomonas aeruginosa; PA01, checkerboard plate; read-out: Doxycycline MIC (alone)
Experimental: Serial two-fold dilutions of antimicrobial agents were mixed together in a microtiter plate. The range of concentration of each drug was twice the MIC, down to the eleventh serial two-fold dilutions below this amount. Doxycycline was serially diluted along the X-axis, and the polyamino-isoprenic compound or PAßN was diluted along the Y-axis as indicated. Each well was inoculated with a bacterial inoculum of 5 x 10^5 CFU/ml, and the plates were incubated at 37°C for 18 h under aerobic conditions. Each plate also contained a row and a column in which a serial dilution of polyamino-isoprenic compound or doxycycline, respectively, was present alone to determine the MIC. The FIC index was calculated as follows: FIC index = FIC A + FIC B, where FIC A is the MIC of drug A in the combination/MIC of drug A alone and FIC B is the MIC of drug B in the combination/MIC of drug B alone. The combination was considered synergistic when the FIC index is ≤0.5, and antagonistic when the FIC index is > 4 [26].

[6] = PA01, antibiotic alone (∅), S3 Table, read-out: MIC
[7] = read-out: Minimal Inhibitory Concentration

With O=C(O)c1cn(C2CC2)c2cc(N3CCNCC3)c(F)cc2c1=O [Ciprofloxacin, ciprofloxacin] the MIC [1] was 4 µg/mL, the MIC [2] was 0.5 µg/mL and the MIC [3] was 0.5 to 1 µg/mL.

Work on CC(C)(O/N=C(\C(=O)N[C@@H]1C(=O)N2C(C(=O)[O-])=C(C[n+]3ccccc3)CS[C@H]12)c1csc(N)n1)C(=O)O [Ceftazidime, ceftazidime] yielded an MIC [1] of 1 µg/mL, an MIC [3] of 8 µg/mL and an MIC (P. aeruginosa PA01 (wt); [6]) of 2 µg/mL.

For C[C@H]1c2cccc(O)c2C(=O)C2=C(O)[C@]3(O)C(=O)C(C(N)=O)=C(O)[C@@H](N(C)C)[C@@H]3[C@@H](O)[C@@H]21 [doxycycline], the MIC [4, 7] was 16 µg/mL, the MIC [1, 7] was over 32 µg/mL and the MIC ([5]; isolate PA2013-LAV01) was 32 µg/mL. For the same compound, the MIC ([5]; isolate PA2013-LAV02) was 32 µg/mL, the MIC ([5]; isolate PA2013-LAV03) was over 32 µg/mL and the MIC ([5]; isolate PA2013-LAV04) was 32 µg/mL. It also gave an MIC ([5]; isolate PA2013-LAV05) of over 32 µg/mL, an MIC ([5]; isolate PA2013-LAV06) of 32 µg/mL and an MIC ([5]; isolate PA2013-LAV07) of 32 µg/mL. For the same compound, the MIC ([5]; isolate PA2013-LAV08) was 32 µg/mL, the MIC ([5]; isolate PA2013-LAV09) was over 32 µg/mL and the MIC ([5]; isolate PA2013-LAV10) was 32 µg/mL. It also gave an MIC ([5]; isolate PA2013-LAV11) of 32 µg/mL, an MIC ([5]; isolate PA2013-LAV12) of 32 µg/mL and an MIC ([5]; isolate PA2013-LAV13) of 32 µg/mL. It also gave an MIC ([5]; isolate PA2013-LAV14) of over 32 µg/mL, an MIC ([5]; isolate PA2013-LAV15) of over 32 µg/mL and an MIC ([5]; isolate PA2013-LAV16) of 32 µg/mL. For the same compound, the MIC ([5]; isolate PA2013-LAV17) was 32 µg/mL, the MIC ([5]; isolate PA2013-LAV18) was over 32 µg/mL and the MIC ([5]; isolate PA2013-LAV19) was 32 µg/mL. The MIC ([5]; isolate PA2013-LAV20) was over 32 µg/mL, the MIC (P. aeruginosa PA01) was 32 µg/mL and the MIC [3, 7] was over 32 µg/mL. For the same compound, the MIC (P. aeruginosa PA01 (wt); PA01, wt, mean of 3 independent experiments, read-out: Minimal Inhibitory Concentration) was 32 µg/mL.

polymyxin-B was tested, and the “Minimal Inhibitory Concentration” value (P. aeruginosa PA01 (wt); PA01, wt) was under 10 µM.

CC1(C)S[C@@H]2[C@H](NC(=O)[C@H](C(=O)O)c3ccsc3)C(=O)N2[C@H]1C(=O)O [Ticarcillin, ticarcillin] was tested, and the MIC [4] was 32 to 64 µg/mL, the MIC [1] was 8 µg/mL and the MIC [2] was 16 to 32 µg/mL. The MIC [3] was over 64 µg/mL and the MIC (P. aeruginosa PA01 (wt); [6]) was 32 to 64 µg/mL.

NCC[C@H](O)C(=O)N[C@@H]1C[C@H](N)[C@@H](O[C@H]2O[C@H](CN)[C@@H](O)[C@H](O)[C@H]2O)[C@H](O)[C@H]1O[C@H]1O[C@H](CO)[C@@H](O)[C@H](N)[C@H]1O [Amikacin, amikacin] was tested, and the MIC [4] was 1 µg/mL, the MIC [1] was 4 µg/mL and the MIC [2] was 32 µg/mL. It also gave an MIC [3] of 4 µg/mL and an MIC (P. aeruginosa PA01 (wt); [6]) of 8 µg/mL.
